Experimental data published in patent publication US20240376068A1, “SIGMA LIGAND COMPOUNDS AND USES THEREOF” (Minerva Neurosciences, Inc., priority 2020, published 2024).
Where two headings read alike, the source gives them in different places.

Key:
[1] = biological target: sigma 1 (h) (Homo sapiens (Human), UniProt Q99720); assay: Sigma-1 binding assay
Protocol: (§1) Assays for determining Sigma-1 and Sigma-2 binding values were performed according to Ganapathy, M. E. et al. (1999), J. Pharmacol. Exp. Ther., 289:251-260.

[2] = biological target: Sigma 2 (h) (Homo sapiens (Human), UniProt Q5BJF2); assay: Sigma-2 binding assay
Sigma 2 (h), sequence (Q5BJF2 whole entry): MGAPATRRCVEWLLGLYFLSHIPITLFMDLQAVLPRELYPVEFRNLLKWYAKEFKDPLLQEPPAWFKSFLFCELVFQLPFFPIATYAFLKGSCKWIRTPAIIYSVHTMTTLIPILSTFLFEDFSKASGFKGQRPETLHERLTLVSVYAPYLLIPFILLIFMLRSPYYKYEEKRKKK
Protocol: as §1

[3] = biological target: 5-HT2A (h) (Homo sapiens (Human), UniProt P28223); assay: 5-HT2A binding assay; settings: antagonist radioligand, HEK-293 cells
5-HT2A (h), sequence (P28223 whole entry): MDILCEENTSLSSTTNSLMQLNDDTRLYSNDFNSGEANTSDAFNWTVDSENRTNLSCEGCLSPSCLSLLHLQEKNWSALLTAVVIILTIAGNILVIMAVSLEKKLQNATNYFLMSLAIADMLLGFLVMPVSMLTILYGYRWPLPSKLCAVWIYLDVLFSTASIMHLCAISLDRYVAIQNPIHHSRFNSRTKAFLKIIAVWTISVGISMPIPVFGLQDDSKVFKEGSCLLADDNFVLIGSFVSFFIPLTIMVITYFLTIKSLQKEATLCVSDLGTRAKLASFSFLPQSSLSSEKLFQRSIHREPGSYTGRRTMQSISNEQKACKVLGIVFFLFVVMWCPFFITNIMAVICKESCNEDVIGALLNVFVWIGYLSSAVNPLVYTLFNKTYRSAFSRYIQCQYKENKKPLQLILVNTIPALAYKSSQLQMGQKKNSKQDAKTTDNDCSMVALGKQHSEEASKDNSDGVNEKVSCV
Protocol: Assays for determining 5-HT2A binding values were performed according to: Bonhaus, D. W. et al. (1995), Brit. J. Pharmacol., 115:622-628; Schwinn, D. A. et al. (1995), J. Pharmacol. Exp. Ther., 272:134-142; and Vicentic, A. et al. (2002), J. Pharmacol. Exp. Ther., 302:58-65; Bylund D B et al. (1994), Pharmacol. Rev. 46:121-136. Each of which is incorporated by reference in its entirety.

[4] = biological target: T1, α1a (h) (Homo sapiens (Human), UniProt P35348); assay: α1A adrenergic agonist effect assay; format: cell-based; settings: for IC50: agonist effect, CHO cells; for activation at 1 µM: α1A(h) agonist effect, read-out: % stimulation relative to control (1 μM)
T1 sequence (P35348 whole entry): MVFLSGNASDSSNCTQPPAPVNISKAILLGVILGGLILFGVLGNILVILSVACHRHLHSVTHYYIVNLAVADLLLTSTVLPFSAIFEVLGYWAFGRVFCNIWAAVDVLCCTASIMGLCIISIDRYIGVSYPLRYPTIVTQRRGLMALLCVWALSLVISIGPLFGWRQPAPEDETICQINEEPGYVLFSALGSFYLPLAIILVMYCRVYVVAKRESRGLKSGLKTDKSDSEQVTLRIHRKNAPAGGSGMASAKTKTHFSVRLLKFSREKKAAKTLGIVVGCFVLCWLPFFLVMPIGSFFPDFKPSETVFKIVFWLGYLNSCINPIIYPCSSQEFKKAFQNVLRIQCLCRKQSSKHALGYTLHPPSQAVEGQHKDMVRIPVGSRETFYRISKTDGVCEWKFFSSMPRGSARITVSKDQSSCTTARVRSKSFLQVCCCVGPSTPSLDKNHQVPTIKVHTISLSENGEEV
Protocol: Assays for determining the agonist effect on α1A (h) were performed according to the procedure described in Example 21, and the results are represented in Table D below.

[5] = biological target: T2, α1b (h) (Homo sapiens (Human), UniProt P35368); assay: α1B adrenergic agonist effect assay; format: cell-based; settings: CHO cells
T2 sequence (P35368 whole entry): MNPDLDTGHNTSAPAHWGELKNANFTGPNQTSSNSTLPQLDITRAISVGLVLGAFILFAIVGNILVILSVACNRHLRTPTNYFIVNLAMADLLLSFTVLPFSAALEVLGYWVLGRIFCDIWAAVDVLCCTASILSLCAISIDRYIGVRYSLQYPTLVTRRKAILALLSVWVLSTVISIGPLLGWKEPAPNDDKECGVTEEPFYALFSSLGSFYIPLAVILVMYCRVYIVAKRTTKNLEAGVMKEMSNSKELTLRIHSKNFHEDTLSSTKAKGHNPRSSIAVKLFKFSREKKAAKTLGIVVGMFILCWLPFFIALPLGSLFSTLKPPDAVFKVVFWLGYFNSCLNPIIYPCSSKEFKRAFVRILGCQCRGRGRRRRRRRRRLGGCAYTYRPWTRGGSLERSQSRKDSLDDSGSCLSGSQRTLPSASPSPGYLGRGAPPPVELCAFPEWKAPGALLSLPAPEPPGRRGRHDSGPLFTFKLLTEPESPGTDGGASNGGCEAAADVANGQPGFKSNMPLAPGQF

[6] = biological target: T3, α1d (h) (Homo sapiens (Human), UniProt P25100); assay: α1D adrenergic agonist effect assay; format: cell-based; settings: CHO cells
T3 sequence (P25100 whole entry): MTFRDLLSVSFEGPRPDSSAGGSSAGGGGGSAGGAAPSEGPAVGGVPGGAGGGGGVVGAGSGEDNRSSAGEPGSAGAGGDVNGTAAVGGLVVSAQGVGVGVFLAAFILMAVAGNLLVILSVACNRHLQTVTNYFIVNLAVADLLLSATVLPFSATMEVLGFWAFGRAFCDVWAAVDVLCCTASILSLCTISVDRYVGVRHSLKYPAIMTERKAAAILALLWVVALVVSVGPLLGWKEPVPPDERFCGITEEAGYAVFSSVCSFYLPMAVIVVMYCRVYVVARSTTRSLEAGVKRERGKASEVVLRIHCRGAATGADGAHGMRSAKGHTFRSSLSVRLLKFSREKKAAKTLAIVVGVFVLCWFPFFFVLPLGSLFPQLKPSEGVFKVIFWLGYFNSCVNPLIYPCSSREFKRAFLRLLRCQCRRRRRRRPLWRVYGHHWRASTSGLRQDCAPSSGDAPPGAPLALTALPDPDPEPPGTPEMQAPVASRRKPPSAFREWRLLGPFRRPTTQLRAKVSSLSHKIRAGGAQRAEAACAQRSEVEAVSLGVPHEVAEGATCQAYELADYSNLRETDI

[7] = biological target: T1, α1a (h); assay: α1A adrenergic antagonist effect assay; format: cell-based; settings: for IC50: antagonist effect, CHO cells; for inhibition at 1 µM: α1A(h) antagonist effect, read-out: % inhibition of control values (1 μM)
Protocol: Assays for determining the antagonist effect on α1A (h) were performed according to the procedure described in Example 21, and the results are represented in Table E below. […] No antagonist effect is observed for the other compounds.

[8] = biological target: T2, α1b (h); assay: α1B adrenergic antagonist effect assay; format: cell-based; settings: CHO cells
[9] = biological target: T3, α1d (h); assay: α1D adrenergic antagonist effect assay; format: cell-based; settings: CHO cells
[10] = tested on: Vero-E6 cell line; assay: Toxicity evaluation on Vero-E6 cell line; format: cell-based; settings: Vero E6, 50 μM to 0.37 μM, 72 h post treatment
Protocol: Day 1: Cell were seeded in 96 wells plate, Vero E6, P40, 10000 cells/well. Growth conditions included medium DMEM high glucose.
Day 2: Compounds were diluted in a mix of 50% DMSO and 50% growth medium to. 10 mM concentration was used for PB28 (10 mg vial from Tocris, 1-Cyclohexyl-4-(3-(5-methoxy-1,2,3,4-tetrahydronaphthalen-1-yl)-n-propyl)piperazine dihydrochloride, see Gordon et al. Nature 2020, 583, […]). Other compounds were prepared at 2 mM concentration stock solution. Cells were treated from 50 μM to 0.37 μM by serial dilution two-fold dilution in triplicate. Controls were designed to include the same concentration of DMSO for each tested products.
Day 5: For a 72 h post treatment, cells were fixed with formalin and stained with Hoetsch33342. Cells were imaged using a Cell Insight CX7 high content screening microscope. Number of cells and nuclear parameters were assessed using an internal cytotoxicity testing protocol.

[11] = biological target: hERG (Homo sapiens (Human), UniProt Q12809); assay: hERG inhibition assay
hERG, sequence (Q12809 whole entry): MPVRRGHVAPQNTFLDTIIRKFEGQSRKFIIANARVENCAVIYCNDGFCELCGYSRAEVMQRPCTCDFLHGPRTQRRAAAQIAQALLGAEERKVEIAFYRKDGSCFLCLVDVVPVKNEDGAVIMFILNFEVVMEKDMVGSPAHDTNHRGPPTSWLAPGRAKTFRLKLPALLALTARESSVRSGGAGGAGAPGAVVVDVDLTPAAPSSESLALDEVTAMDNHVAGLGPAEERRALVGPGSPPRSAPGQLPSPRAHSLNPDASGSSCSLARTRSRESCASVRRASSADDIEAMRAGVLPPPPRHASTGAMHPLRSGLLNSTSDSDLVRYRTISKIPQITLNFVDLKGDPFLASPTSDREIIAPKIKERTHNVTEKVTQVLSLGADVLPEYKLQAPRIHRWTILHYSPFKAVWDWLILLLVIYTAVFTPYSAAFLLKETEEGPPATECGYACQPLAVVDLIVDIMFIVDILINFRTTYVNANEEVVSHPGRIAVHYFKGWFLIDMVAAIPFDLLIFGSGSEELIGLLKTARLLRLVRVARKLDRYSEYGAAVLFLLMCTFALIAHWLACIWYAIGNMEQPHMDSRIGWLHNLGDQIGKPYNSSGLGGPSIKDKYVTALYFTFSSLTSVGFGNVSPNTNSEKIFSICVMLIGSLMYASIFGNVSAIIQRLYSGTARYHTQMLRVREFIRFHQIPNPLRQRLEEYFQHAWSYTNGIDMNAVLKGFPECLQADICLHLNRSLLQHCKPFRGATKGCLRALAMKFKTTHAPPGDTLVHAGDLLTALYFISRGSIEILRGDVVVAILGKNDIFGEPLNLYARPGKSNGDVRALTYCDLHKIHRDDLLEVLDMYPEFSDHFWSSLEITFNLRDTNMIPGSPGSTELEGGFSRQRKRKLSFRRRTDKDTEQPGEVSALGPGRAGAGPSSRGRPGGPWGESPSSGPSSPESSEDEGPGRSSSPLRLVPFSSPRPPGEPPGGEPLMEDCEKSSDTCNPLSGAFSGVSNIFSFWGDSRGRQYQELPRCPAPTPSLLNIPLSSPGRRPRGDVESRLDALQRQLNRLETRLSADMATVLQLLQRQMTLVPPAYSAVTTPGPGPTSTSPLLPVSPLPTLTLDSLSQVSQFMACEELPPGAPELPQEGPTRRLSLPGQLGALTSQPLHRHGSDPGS

[12] = biological target: dopamine D2S receptor (Homo sapiens (Human), UniProt P14416); assay: Dopamine D2S receptor binding assay (Eurofins Cerep item 1322); settings: [3H]7-OH-DPAT, read-out: % inhibition of control specific binding (1 μM)
dopamine D2S receptor, sequence (P14416 other isoform, or with tags, fused parts or gaps): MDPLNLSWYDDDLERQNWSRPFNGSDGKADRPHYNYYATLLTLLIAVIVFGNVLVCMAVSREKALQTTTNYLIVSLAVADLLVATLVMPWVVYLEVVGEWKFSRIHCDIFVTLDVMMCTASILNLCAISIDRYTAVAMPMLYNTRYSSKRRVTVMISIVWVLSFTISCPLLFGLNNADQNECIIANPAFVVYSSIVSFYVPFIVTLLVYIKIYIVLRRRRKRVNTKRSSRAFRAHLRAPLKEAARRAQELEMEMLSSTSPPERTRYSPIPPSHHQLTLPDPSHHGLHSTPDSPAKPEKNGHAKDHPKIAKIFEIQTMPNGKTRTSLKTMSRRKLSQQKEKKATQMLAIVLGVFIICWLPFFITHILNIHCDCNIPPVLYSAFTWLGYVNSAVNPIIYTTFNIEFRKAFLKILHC
Protocol: Assays for determining dopamine D2S receptor binding values were performed according to Eurofins Cerep protocol item 1322 and the results are represented in Table C below. The parameters used for the assay are described below. […] Common antipsychotics, in contrast, block dopamine receptors (Keefe, et al., J Clin Psychiatry. 2018; 79 (3): 17m11753).

[13] = biological target: 5HT2A (Homo sapiens (Human), UniProt P28223); assay: 5HT2A agonist effect assay; format: cell-based; settings: for activation at 0.1 µM: 100 nM, read-out: % stimulation relative to control (100 nM); for activation at 1 µM: read-out: % stimulation relative to control (1 μM)
Protocol: Assays for determining the agonist effect on 5HT2A were performed according to the procedure described in Example 21, and the results are represented in Table F below. The compounds in Table F have no agonist effect on 5HT2A at 1 μM and 100 nM.

[14] = [3H](+)pentazocine, Jurkat cells, read-out: Sigma-1 Ki
[15] = [3H]DTG (+1 μM (+)pentazocine), Jurkat cells, read-out: Sigma-2 Ki

sigma 1 (h), sequence (Q99720 whole entry): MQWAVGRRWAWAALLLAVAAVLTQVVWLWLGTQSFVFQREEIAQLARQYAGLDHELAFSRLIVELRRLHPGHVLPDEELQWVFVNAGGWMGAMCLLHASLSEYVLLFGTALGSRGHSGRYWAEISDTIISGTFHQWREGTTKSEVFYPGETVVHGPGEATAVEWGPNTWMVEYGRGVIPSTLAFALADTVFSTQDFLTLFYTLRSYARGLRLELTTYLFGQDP

Compound	Ki [1, 14]	Ki [2, 15]	IC50 [3]	IC50 [4]	IC50 [5]	IC50 [6]	IC50 [7]	IC50 [8]	IC50 [9]	cytotoxicity (cell number) [10]	IC50 [11]	Ki [1]	Ki [2]	activation at 1 µM [4]	inhibition at 1 µM [7]	inhibition at 1 µM [12]	activation at 0.1 µM [13]	activation at 1 µM [13]
CCCN1CCN(c2ccc3c(c2)CN(C(=O)OCc2ccccc2)CC3(C)C)CC1 [Compound 2, benzyl 4,4-dimethyl-7-(4-propylpiperazin-1-yl)-3,4-dihydroisoquinoline-2(1H)-carboxylate]	0.005 to 0.05 µM	0.005 to 0.05 µM	> 1 µM	> 1 µM	> 1 µM	> 1 µM	> 1 µM	> 1 µM	> 1 µM	not cytotoxic	> 3 µM							
CC1(C)CCN(C2CCCC2)Cc2cc(-c3ccc(C(F)(F)F)cc3)ccc21 [Compound 10, 2-cyclopentyl-5,5-dimethyl-8-(4-(trifluoromethyl)phenyl)-2,3,4,5-tetrahydro-1H-benzo[c]azepine]			> 1 µM	> 1 µM	> 1 µM	> 1 µM	> 1 µM	> 1 µM	> 1 µM		> 3 µM	> 0.5 µM	0.005 to 0.05 µM					
CC(C)OC(=O)N1CCC(C)(C)c2ccc(N3CCN(C4CCCC4)CC3)cc2C1 [Compound 79, isopropyl 8-(4-cyclopentylpiperazin-1-yl)-5,5-dimethyl-1,3,4,5-tetrahydro-2H-benzo[c]azepine-2-carboxylate]	0.0001 to 0.005 µM	0.005 to 0.05 µM									> 3 µM			0%	13%	19%	1%	0%
CC1(C)CCN(S(=O)(=O)c2cccc(Cl)c2)Cc2cc(N3CCC(N4CCOCC4)CC3)ccc21 [Compound 80, 4-(1-(2-((3-chlorophenyl)sulfonyl)-5,5-dimethyl-2,3,4,5-tetrahydro-1H-benzo[c]azepin-8-yl)piperidin-4-yl)morpholine]	0.0001 to 0.005 µM	0.05 to 0.1 µM									> 3 µM			0%	15%	4%	0%	1%
